According to publication PMC10331946, “Characterization of Natural Compounds as Inhibitors of NS1 Endonuclease from Canine Parvovirus Type 2” (Journal of Microbiology and Biotechnology, 2023):
“And” between values parts separate entries of the source, which are not always exact repeats. Equal values may be shown once. Read-outs that look alike come from different tables or passages of the source.

Target: T1, CPV-2 NS1 endonuclease (Canine parvovirus type 2, UniProt P12929)
T1 construct: hexahistidine (N); hexahistidine (C); made in house; host or cells: E. coli BL21 (De3) pLysS
T1 sequence (P12929 1-277): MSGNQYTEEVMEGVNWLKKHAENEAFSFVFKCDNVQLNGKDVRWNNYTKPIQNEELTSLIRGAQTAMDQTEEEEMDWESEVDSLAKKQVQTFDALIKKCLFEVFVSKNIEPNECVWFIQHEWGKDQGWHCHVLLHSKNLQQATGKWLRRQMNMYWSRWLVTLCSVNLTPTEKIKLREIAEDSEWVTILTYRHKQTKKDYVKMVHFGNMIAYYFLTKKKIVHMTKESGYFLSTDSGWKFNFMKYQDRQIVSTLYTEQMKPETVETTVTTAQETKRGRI
Test: FRET nicking assay, inhibition of recombinant CPV-2 NS1 endonuclease
Assay type: biochemical, Canine parvovirus type 2 (CPV-2)
Conditions: for Inhibition (%) at 50 μM: 50 μM inhibitor; for IC50: single compounds, 1.25 μg endonuclease, pH 7.0, 300 mM NaCl, 37°C, curcumin by 4PL, others by linear regression
Source text: The fluorescence resonance energy transfer (FRET) substrate, which was composed of an oligonucleotide 5¢-TAA CCT TAC CAT AAG TA↓T CAA TCT GTC TTT-3¢ labeled with carboxyfluorescein (FAM) at the 5¢-terminus and black hole quencher 1 (BHQ1) at the 3¢-terminus as the energy transfer pair, was designed and synthesized by Bioneer Corp. (Korea) (Fig. S1).
cDNA of the CPV-2 NS1 endonuclease gene was synthesized after codon optimization (Genscript, USA) based on the N-terminal amino acid sequence (amino acids 1–277 of the DNA-binding region) of CPV-2 NS1 endonuclease (GenBank Accession No. AAV36764.1) (Fig. S2). The CPV-2 NS1 endonuclease gene was imbedded into the pET-28a (+) vector (Novagen, Germany) with hexahistidine tags at the N- and C-termini. The plasmids were transformed into E. coli BL21 (De3) pLysS (Invitrogen, USA) for expression. The transformed cells were cultured in 1 L of LB containing 30 μg/ml kanamycin at 37°C until the OD600 reached 0.6. Next, protein expression was induced with 1 mM isopropyl β-D-1-thiogalactopyranoside (IPTG) at 24°C for 20 h. Cells were harvested by centrifugation at 12,000 ×g for 25 min and 4°C. The pellet was resuspended in 50 ml 50 mM Tris-HCl buffer (pH 7.0) containing 300 mM NaCl and disrupted by sonication. After centrifugation at 12,000 ×g for 30 min and 4°C, the supernatant was applied to a Ni-NTA agarose column (Qiagen, Germany) and washed with 50 mM Tris-HCl buffer (pH 8.0) containing 300 mM NaCl and 20 mM imidazole. CPV-2 NS1 endonuclease was eluted with 50 mM Tris-HCl buffer (pH 8.0) containing 300 mM NaCl, and 250 mM imidazole, and dialyzed against 50 mM Tris-HCl (pH 7.0) containing 300 mM NaCl at 4°C overnight. The purified protein was stored at −20°C until required.
CPV-2 NS1 endonuclease activity was measured using an FRET substrate as described above. The reaction mixture was composed of 1.25 μg endonuclease and 0.6 μM FRET in 50 mM Tris-HCl buffer (pH 7.0). The reaction was run at 37°C with continuous monitoring of fluorescence for 10 min. Relative fluorescence units (RFUs) were measured using a SpectraMax M3 fluorescence plate reader (Molecular Devices, USA) with an excitation wavelength of 495 nm and an emission wavelength of 517 nm.
Thirty-one compounds, extracted sesame cake, turmeric, and yerba mate were tested for inhibitory effects against CPV-2 NS1 endonuclease. For screening, thirty-one compounds, turmeric, and yerba mate were dissolved in dimethyl sulfoxide (DMSO) to 5 mM or 10 mg/ml as stock solutions. Sesame cake extract (10 mg/ml) was solubilized in water. The reaction was initiated by adding 0.6 μM FRET substrate to a mixture of 50 μM compound and 1.25 μg endonuclease in 50 mM Tris-HCl buffer (pH 7.0) containing 300 mM NaCl. The reaction was run at 37°C for 3 min using a SpectraMax M3 fluorescence plate reader with an excitation wavelength of 495 nm and emission wavelength of 517 nm. Inhibitory activity was calculated using the following equation:
Inhibition activity (%) 100-[(S-S0)÷(C-C0)]×100
where C is RFU of the control (enzyme, buffer, and substrate) after a 3 min reaction, C0 is the RFU of the control at 0 min, S is the RFU of the sample (enzyme, buffer, inhibitor, and substrate) after 3 min, and S0 is the RFU of the sample at 0 min.
We determined the 50% inhibitory concentrations (IC50) of the six natural compounds, extracted turmeric, yerba mate, and sesame cake relative to the inhibitor-free control. The IC50 values of curcumin, and extracted sesame cake were calculated using a four-parameter logistic curve (4PL) using Prism v. 8 software (GraphPad Software Inc., USA). […] 8 software.

[1] = 0.6 μM FRET substrate, 1.25 μg enzyme, 50 mM Tris/HCl pH 7.0, 37°C, 3 min
[2] = pH 7, 50 μM inhibitor, 0.6 μM FRET substrate, 1.25 μg enzyme, 50 mM Tris/HCl pH 7.0, 37°C, 3 min, read-out: Inhibition (%) at 50 μM
[3] = pH 7, read-out: Inhibition (%) at 50 μM, 50 μM inhibitor, 0.6 μM FRET substrate, 1.25 μg enzyme, 50 mM Tris/HCl pH 7.0, 37°C, 3 min

Structure (SMILES) | Inhibition (%) at 50 μM [1] | inhibition at 50 µM [2] | further results
c1cc2c(cc1[C@H]1OC[C@H]3[C@@H]1CO[C@@H]3c1ccc3c(c1)OCO3)OCO2 [(+)-Sesamin] | did not inhibit | 0% | –
O=c1c(O[C@@H]2O[C@H](CO)[C@@H](O)[C@H](O)[C@H]2O)c(-c2ccc(O)cc2)oc2cc(O)cc(O)c12 [Astragalin] | did not inhibit | 0% | –
O=C(/C=C/c1ccc(O)cc1)CC(=O)/C=C/c1ccc(O)cc1 [Bisdemethoxycurcumin] | 100% | – | inhibition at 50 µM [3]: > 95%; IC50 (0.6 μM FRET substrate, 3 min): 450 ± 50 nM
O=C(O)/C=C/c1ccc(O)c(O)c1 [Caffeic acid] | 42 ± 8% | – | Inhibition (%) at 50 μM (0.6 μM FRET substrate, 1.25 μg enzyme, 50 mM Tris/HCl pH 7.0, 37°C, 3 min, listed as caffeic acid): < 50% and > 29%
Cn1c(=O)c2c(ncn2C)n(C)c1=O [Caffeine] | 7 ± 7% | – | Inhibition (%) at 50 μM (0.6 μM FRET substrate, 1.25 μg enzyme, 50 mM Tris/HCl pH 7.0, 37°C, 3 min, listed as caffeine): < 50%
O=C(/C=C/c1ccc(O)c(O)c1)O[C@@H]1C[C@](O)(C(=O)O)C[C@@H](O)[C@H]1O [Chlorogenic acid] | 29 ± 4% | – | Inhibition (%) at 50 μM (0.6 μM FRET substrate, 1.25 μg enzyme, 50 mM Tris/HCl pH 7.0, 37°C, 3 min, listed as chlorogenic acid): < 50% and > 29%
O=c1c(-c2ccc(O)cc2)coc2cc(O)ccc12 [Daidzein] | 22 ± 12% | – | Inhibition (%) at 50 μM (0.6 μM FRET substrate, 1.25 μg enzyme, 50 mM Tris/HCl pH 7.0, 37°C, 3 min, listed as daidzein): < 50%
COc1cc(/C=C/C(=O)CC(=O)/C=C/c2ccc(O)cc2)ccc1O [Demethoxycurcumin] | 100% | – | inhibition at 50 µM [3]: > 95%; IC50 (0.6 μM FRET substrate, 3 min): 630 ± 10 nM
O=C(O[C@@H]1Cc2c(O)cc(O)cc2O[C@@H]1c1cc(O)c(O)c(O)c1)c1cc(O)c(O)c(O)c1 [EGCG, epigallocatechin gallate] | 49 ± 6% | – | Inhibition (%) at 50 μM (0.6 μM FRET substrate, 1.25 μg enzyme, 50 mM Tris/HCl pH 7.0, 37°C, 3 min, listed as epigallocatechin gallate): < 50%
COc1cc(/C=C/C(=O)O)ccc1O [Ferulic acid] | 37 ± 5% | – | Inhibition (%) at 50 μM (0.6 μM FRET substrate, 1.25 μg enzyme, 50 mM Tris/HCl pH 7.0, 37°C, 3 min, listed as ferulic acid): < 50%
O=c1c(O)c(-c2ccc(O)c(O)c2)oc2cc(O)ccc12 [Fisetin] | did not inhibit | 0% | –
O=C(O)c1cc(O)c(O)c(O)c1 [Gallic acid] | 2 ± 2% | – | Inhibition (%) at 50 μM (0.6 μM FRET substrate, 1.25 μg enzyme, 50 mM Tris/HCl pH 7.0, 37°C, 3 min, listed as gallic acid): < 50%
O=c1c(-c2ccc(O)cc2)coc2cc(O)cc(O)c12 [Genistein] | 45 ± 14% | – | inhibition at 50 µM [3]: < 50%
O=C1O[C@H]([C@@H](O)CO)C(O)=C1O [L-Ascorbic acid] | did not inhibit | 0% | –
C[N+](C)(C)C[C@H](O)CC(=O)[O-] [L-carnitine] | < 50% and 29 ± 2% | – | –
CCCCC/C=C\C/C=C\CCCCCCCC(=O)O [Linoleic acid] | 100% | – | inhibition at 50 µM [3]: > 95%; IC50 (0.6 μM FRET substrate, 3 min): 1140 ± 40 nM
O=c1c2cc(O)c(O)cc2oc2cc(O)c([C@@H]3O[C@H](CO)[C@@H](O)[C@H](O)[C@H]3O)c(O)c12 [Mangiferin] | did not inhibit | 0% | –
O=c1c(O)c(-c2cc(O)c(O)c(O)c2)oc2cc(O)cc(O)c12 [Myricetin] | did not inhibit | 0% | –
O=C1C[C@@H](c2ccc(O)cc2)Oc2cc(O)cc(O)c21 [Naringenin] | did not inhibit | 0% | –
CC1(C)CC[C@]2(C(=O)O)CC[C@]3(C)C(=CC[C@@H]4[C@@]5(C)CC[C@H](O)C(C)(C)[C@@H]5CC[C@]43C)[C@@H]2C1 [Oleanolic acid] | 51 ± 7% | – | Inhibition (%) at 50 μM (0.6 μM FRET substrate, 1.25 μg enzyme, 50 mM Tris/HCl pH 7.0, 37°C, 3 min, listed as oleanolic acid): > 29%
O=C(/C=C/C=C/c1ccc2c(c1)OCO2)N1CCCCC1 [Piperine] | did not inhibit | 0% | –
O=c1c(O)c(-c2ccc(O)c(O)c2)oc2cc(O)cc(O)c12 [Quercetin] | 51 ± 3% | – | Inhibition (%) at 50 μM (0.6 μM FRET substrate, 1.25 μg enzyme, 50 mM Tris/HCl pH 7.0, 37°C, 3 min, listed as quercetin): > 29%
Oc1ccc(/C=C/c2cc(O)cc(O)c2)cc1 [Resveratrol] | did not inhibit | 0% | –
C[C@@H]1O[C@@H](OC[C@H]2O[C@@H](Oc3c(-c4ccc(O)c(O)c4)oc4cc(O)cc(O)c4c3=O)[C@H](O)[C@@H](O)[C@@H]2O)[C@H](O)[C@H](O)[C@H]1O [Rutin] | did not inhibit | 0% | –
Oc1ccc2c(c1)OCO2 [Sesamol] | 9 ± 5% | – | Inhibition (%) at 50 μM (0.6 μM FRET substrate, 1.25 μg enzyme, 50 mM Tris/HCl pH 7.0, 37°C, 3 min, listed as sesamol): < 50%
c1cc2c(cc1O[C@H]1OC[C@H]3[C@@H]1CO[C@@H]3c1ccc3c(c1)OCO3)OCO2 [Sesamolin] | did not inhibit | 0% | –
C[C@H]1[C@H](C)CC[C@]2(C(=O)O)CC[C@]3(C)C(=CC[C@@H]4[C@@]5(C)CC[C@H](O)C(C)(C)[C@@H]5CC[C@]43C)[C@H]12 [Ursolic acid] | 29 ± 5% | – | Inhibition (%) at 50 μM (0.6 μM FRET substrate, 1.25 μg enzyme, 50 mM Tris/HCl pH 7.0, 37°C, 3 min, listed as ursolic acid): < 50% and > 29%
CC1=C(C/C=C(\C)CCC[C@H](C)CCC[C@H](C)CCCC(C)C)C(=O)c2ccccc2C1=O [Vitamin K1] | – | 68 ± 15% | –
Cc1c(C)c2c(c(C)c1O)CC[C@@](C)(CCC[C@H](C)CCC[C@H](C)CCCC(C)C)O2 [α-Tocopherol (Vitamin E), α-Tocopherol] | 98 ± 3% | – | inhibition at 50 µM [3]: > 95%; IC50 (0.6 μM FRET substrate, 3 min): 8030 ± 800 nM
